Reference: patent US12365655B2, “Compounds” (CTXT PTY LTD, priority 2018, dated 2025)

What follows are compounds tested against MOZ-KAT6A (Homo sapiens, UniProt Q92794, A567V) (assay: Acetyltransferase biochemical assay (AlphaScreen), KAT6A).
MOZ-KAT6A, sequence (Q92794 with tags, fused parts or gaps A567V): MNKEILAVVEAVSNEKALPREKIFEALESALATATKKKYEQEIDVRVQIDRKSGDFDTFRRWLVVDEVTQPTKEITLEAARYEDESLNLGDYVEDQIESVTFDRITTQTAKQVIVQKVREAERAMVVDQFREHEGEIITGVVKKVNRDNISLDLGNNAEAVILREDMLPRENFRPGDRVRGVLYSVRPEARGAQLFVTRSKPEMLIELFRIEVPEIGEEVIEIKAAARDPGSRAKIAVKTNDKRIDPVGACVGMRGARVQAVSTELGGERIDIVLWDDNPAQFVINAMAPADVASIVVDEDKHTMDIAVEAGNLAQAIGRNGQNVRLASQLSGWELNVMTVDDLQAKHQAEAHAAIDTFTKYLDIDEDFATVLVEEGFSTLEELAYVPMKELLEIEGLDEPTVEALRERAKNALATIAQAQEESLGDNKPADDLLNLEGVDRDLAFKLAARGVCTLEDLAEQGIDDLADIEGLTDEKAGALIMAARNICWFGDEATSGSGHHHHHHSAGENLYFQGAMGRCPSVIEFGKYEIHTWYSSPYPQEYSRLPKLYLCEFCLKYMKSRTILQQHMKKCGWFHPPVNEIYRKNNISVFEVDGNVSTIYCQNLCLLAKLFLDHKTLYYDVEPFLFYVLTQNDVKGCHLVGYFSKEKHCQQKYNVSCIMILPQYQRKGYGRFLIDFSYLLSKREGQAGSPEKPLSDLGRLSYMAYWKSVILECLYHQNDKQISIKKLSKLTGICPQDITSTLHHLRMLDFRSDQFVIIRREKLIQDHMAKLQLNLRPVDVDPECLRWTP

Compound	IC50
COc1cc2c(cc1S(=O)(=O)Nc1noc3ccc(Br)cc13)CCCC2 [Example 113, N-(5-bromobenzo[d]isoxazol-3-yl)-3-methoxy-5,6,7,8-tetrahydronaphthalene-2-sulfonamide]	0.775 µM
Cc1ccc(Br)cc1S(=O)(=O)Nc1noc2cccc(Cl)c12 [Example 114, 5-Bromo-N-(4-chlorobenzo[d]isoxazol-3-yl)-2-methylbenzenesulfonamide]	29.3 µM
COC(=O)c1ccc(Cl)cc1S(=O)(=O)Nc1noc2cccc(Cl)c12 [Example 115, Methyl 4-chloro-2-(N-(4-chlorobenzo[d]isoxazol-3-yl)sulfamoyl)benzoate]	29 µM
O=S(=O)(Nc1noc2cccc(Cl)c12)c1ccc(F)c(F)c1F [Example 117, N-(4-Chlorobenzo[d]isoxazol-3-yl)-2,3,4-trifluorobenzenesulfonamide]	85.4 µM
Cc1cnc2c(S(=O)(=O)Nc3noc4cccc(Cl)c34)cccc2c1 [Example 118, N-(4-Chlorobenzo[d]isoxazol-3-yl)-3-methylquinoline-8-sulfonamide]	10 µM
CCc1ccc(OC)c(S(=O)(=O)Nc2noc3cccc(C(F)(F)F)c23)c1 [Example 121, 5-Ethyl-2-methoxy-N-(4-(trifluoromethyl)benzo[d]isoxazol-3-yl)benzenesulfonamide]	1.24 µM
O=S(=O)(Nc1noc2cccc(Cl)c12)c1cccc2cccnc12 [Example 123, N-(4-chlorobenzo[d]isoxazol-3-yl)quinoline-8-sulfonamide]	26.9 µM
O=S(=O)(Nc1noc2cccc(Cl)c12)c1cccc2ccccc12 [Example 124, N-(4-Chlorobenzo[d]isoxazol-3-yl)naphthalene-1-sulfonamide]	11 µM
CCc1ccc(OC)c(S(=O)(=O)Nc2noc3cc(-n4ccnn4)ccc23)c1 [Example 125]	24.5 µM
CCc1ccc(OC)c(S(=O)(=O)Nc2noc3cc(-c4ncccn4)ccc23)c1 [Example 126, 5-Ethyl-2-methoxy-N-(6-(pyrimidin-2-yl)benzo[d]isoxazol-3-yl)benzenesulfonamide]	10.5 µM
O=S(=O)(Nc1noc2cccc(Cl)c12)c1cc(Br)cc2c1OCC2 [Example 127, 5-bromo-N-(4-chlorobenzo[d]isoxazol-3-yl)-2,3-dihydrobenzofuran-7-sulfonamide]	9.16 µM
CCc1ccc(OC)c(S(=O)(=O)Nc2noc3ccc(Br)c(Cl)c23)c1 [Example 128, N-(5-bromo-4-chlorobenzo[d]isoxazol-3-yl)-5-ethyl-2-methoxy benzenesulfonamide]	0.25 µM
CCc1ccc(OC)c(S(=O)(=O)Nc2noc3cccc(Br)c23)c1 [Example 129]	0.772 µM
CCc1ccc(OC)c(S(=O)(=O)Nc2noc3cc(-n4nccn4)ccc23)c1 [Example 130]	2.96 µM
CCc1ccc(OC)c(S(=O)(=O)Nc2noc3cc(-n4cccn4)ccc23)c1 [Example 131]	3.11 µM
CCc1ccc(OC)c(S(=O)(=O)Nc2noc3c(OCC4CC4)cccc23)c1 [Example 133]	4.45 µM
CCc1ccc(OC)c(S(=O)(=O)Nc2noc3cc(OCC4CC4)ccc23)c1 [Example 134]	6.45 µM

The compounds below were run against HBO-KAT7 (Homo sapiens, UniProt O95251) (assay: Acetyltransferase biochemical assay (AlphaScreen), KAT7).
HBO-KAT7, sequence (O95251 with tags, fused parts or gaps): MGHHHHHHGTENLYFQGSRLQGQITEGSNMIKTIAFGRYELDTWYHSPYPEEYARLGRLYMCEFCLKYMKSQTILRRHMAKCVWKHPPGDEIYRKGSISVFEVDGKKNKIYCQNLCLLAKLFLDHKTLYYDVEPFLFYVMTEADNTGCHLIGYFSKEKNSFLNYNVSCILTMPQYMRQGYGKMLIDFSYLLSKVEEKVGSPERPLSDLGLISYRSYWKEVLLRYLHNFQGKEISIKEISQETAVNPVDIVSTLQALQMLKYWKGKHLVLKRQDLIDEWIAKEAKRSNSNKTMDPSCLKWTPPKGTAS

Compound	IC50
COc1cc2c(cc1S(=O)(=O)Nc1noc3ccc(Br)cc13)CCCC2 [Example 113, N-(5-bromobenzo[d]isoxazol-3-yl)-3-methoxy-5,6,7,8-tetrahydronaphthalene-2-sulfonamide]	0.914 µM
Cc1ccc(Br)cc1S(=O)(=O)Nc1noc2cccc(Cl)c12 [Example 114, 5-Bromo-N-(4-chlorobenzo[d]isoxazol-3-yl)-2-methylbenzenesulfonamide]	41.6 µM
COC(=O)c1ccc(Cl)cc1S(=O)(=O)Nc1noc2cccc(Cl)c12 [Example 115, Methyl 4-chloro-2-(N-(4-chlorobenzo[d]isoxazol-3-yl)sulfamoyl)benzoate]	95.5 µM
O=S(=O)(Nc1noc2cccc(Cl)c12)c1ccc(F)c(F)c1F [Example 117, N-(4-Chlorobenzo[d]isoxazol-3-yl)-2,3,4-trifluorobenzenesulfonamide]	> 125 µM
Cc1cnc2c(S(=O)(=O)Nc3noc4cccc(Cl)c34)cccc2c1 [Example 118, N-(4-Chlorobenzo[d]isoxazol-3-yl)-3-methylquinoline-8-sulfonamide]	0.852 µM
CCc1ccc(OC)c(S(=O)(=O)Nc2noc3cccc(C(F)(F)F)c23)c1 [Example 121, 5-Ethyl-2-methoxy-N-(4-(trifluoromethyl)benzo[d]isoxazol-3-yl)benzenesulfonamide]	5.21 µM
O=S(=O)(Nc1noc2cccc(Cl)c12)c1cccc2cccnc12 [Example 123, N-(4-chlorobenzo[d]isoxazol-3-yl)quinoline-8-sulfonamide]	4.2 µM
O=S(=O)(Nc1noc2cccc(Cl)c12)c1cccc2ccccc12 [Example 124, N-(4-Chlorobenzo[d]isoxazol-3-yl)naphthalene-1-sulfonamide]	13 µM
CCc1ccc(OC)c(S(=O)(=O)Nc2noc3cc(-n4ccnn4)ccc23)c1 [Example 125]	85.8 µM
CCc1ccc(OC)c(S(=O)(=O)Nc2noc3cc(-c4ncccn4)ccc23)c1 [Example 126, 5-Ethyl-2-methoxy-N-(6-(pyrimidin-2-yl)benzo[d]isoxazol-3-yl)benzenesulfonamide]	28.9 µM
O=S(=O)(Nc1noc2cccc(Cl)c12)c1cc(Br)cc2c1OCC2 [Example 127, 5-bromo-N-(4-chlorobenzo[d]isoxazol-3-yl)-2,3-dihydrobenzofuran-7-sulfonamide]	9.49 µM
CCc1ccc(OC)c(S(=O)(=O)Nc2noc3ccc(Br)c(Cl)c23)c1 [Example 128, N-(5-bromo-4-chlorobenzo[d]isoxazol-3-yl)-5-ethyl-2-methoxy benzenesulfonamide]	0.618 µM
CCc1ccc(OC)c(S(=O)(=O)Nc2noc3cccc(Br)c23)c1 [Example 129]	1.32 µM
CCc1ccc(OC)c(S(=O)(=O)Nc2noc3cc(-n4nccn4)ccc23)c1 [Example 130]	21.7 µM
CCc1ccc(OC)c(S(=O)(=O)Nc2noc3cc(-n4cccn4)ccc23)c1 [Example 131]	23.8 µM
CCc1ccc(OC)c(S(=O)(=O)Nc2noc3c(OCC4CC4)cccc23)c1 [Example 133]	5.34 µM
CCc1ccc(OC)c(S(=O)(=O)Nc2noc3cc(OCC4CC4)ccc23)c1 [Example 134]	27.6 µM

The compounds below were run against TIP60-KAT5 (Homo sapiens, UniProt Q92993) (assay: Acetyltransferase biochemical assay (AlphaScreen), KAT5).
TIP60-KAT5, sequence (Q92993 with tags, fused parts or gaps isoform Q92993-2): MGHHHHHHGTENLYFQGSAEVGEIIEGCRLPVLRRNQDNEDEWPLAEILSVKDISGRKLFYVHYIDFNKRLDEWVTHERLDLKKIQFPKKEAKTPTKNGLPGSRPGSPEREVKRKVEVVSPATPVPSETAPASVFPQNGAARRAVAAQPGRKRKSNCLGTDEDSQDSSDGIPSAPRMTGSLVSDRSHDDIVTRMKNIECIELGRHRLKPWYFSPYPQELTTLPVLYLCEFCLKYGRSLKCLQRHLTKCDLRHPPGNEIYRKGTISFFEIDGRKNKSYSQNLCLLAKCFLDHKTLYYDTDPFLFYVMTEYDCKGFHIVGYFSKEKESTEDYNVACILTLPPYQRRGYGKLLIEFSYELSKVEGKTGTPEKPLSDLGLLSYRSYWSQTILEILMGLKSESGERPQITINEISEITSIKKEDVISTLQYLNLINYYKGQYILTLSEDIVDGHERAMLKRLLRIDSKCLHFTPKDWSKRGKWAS

Compound	IC50
COc1cc2c(cc1S(=O)(=O)Nc1noc3ccc(Br)cc13)CCCC2 [Example 113, N-(5-bromobenzo[d]isoxazol-3-yl)-3-methoxy-5,6,7,8-tetrahydronaphthalene-2-sulfonamide]	4.84 µM
Cc1ccc(Br)cc1S(=O)(=O)Nc1noc2cccc(Cl)c12 [Example 114, 5-Bromo-N-(4-chlorobenzo[d]isoxazol-3-yl)-2-methylbenzenesulfonamide]	59.4 µM
COC(=O)c1ccc(Cl)cc1S(=O)(=O)Nc1noc2cccc(Cl)c12 [Example 115, Methyl 4-chloro-2-(N-(4-chlorobenzo[d]isoxazol-3-yl)sulfamoyl)benzoate]	23.7 µM
O=S(=O)(Nc1noc2cccc(Cl)c12)c1ccc(F)c(F)c1F [Example 117, N-(4-Chlorobenzo[d]isoxazol-3-yl)-2,3,4-trifluorobenzenesulfonamide]	> 125 µM
Cc1cnc2c(S(=O)(=O)Nc3noc4cccc(Cl)c34)cccc2c1 [Example 118, N-(4-Chlorobenzo[d]isoxazol-3-yl)-3-methylquinoline-8-sulfonamide]	37.1 µM
CCc1ccc(OC)c(S(=O)(=O)Nc2noc3cccc(C(F)(F)F)c23)c1 [Example 121, 5-Ethyl-2-methoxy-N-(4-(trifluoromethyl)benzo[d]isoxazol-3-yl)benzenesulfonamide]	29 µM
O=S(=O)(Nc1noc2cccc(Cl)c12)c1cccc2cccnc12 [Example 123, N-(4-chlorobenzo[d]isoxazol-3-yl)quinoline-8-sulfonamide]	59.4 µM
O=S(=O)(Nc1noc2cccc(Cl)c12)c1cccc2ccccc12 [Example 124, N-(4-Chlorobenzo[d]isoxazol-3-yl)naphthalene-1-sulfonamide]	27.9 µM
CCc1ccc(OC)c(S(=O)(=O)Nc2noc3cc(-n4ccnn4)ccc23)c1 [Example 125]	> 125 µM
CCc1ccc(OC)c(S(=O)(=O)Nc2noc3cc(-c4ncccn4)ccc23)c1 [Example 126, 5-Ethyl-2-methoxy-N-(6-(pyrimidin-2-yl)benzo[d]isoxazol-3-yl)benzenesulfonamide]	51.3 µM
O=S(=O)(Nc1noc2cccc(Cl)c12)c1cc(Br)cc2c1OCC2 [Example 127, 5-bromo-N-(4-chlorobenzo[d]isoxazol-3-yl)-2,3-dihydrobenzofuran-7-sulfonamide]	49.7 µM
CCc1ccc(OC)c(S(=O)(=O)Nc2noc3ccc(Br)c(Cl)c23)c1 [Example 128, N-(5-bromo-4-chlorobenzo[d]isoxazol-3-yl)-5-ethyl-2-methoxy benzenesulfonamide]	6.3 µM
CCc1ccc(OC)c(S(=O)(=O)Nc2noc3cccc(Br)c23)c1 [Example 129]	18.5 µM
CCc1ccc(OC)c(S(=O)(=O)Nc2noc3cc(-n4nccn4)ccc23)c1 [Example 130]	> 125 µM
CCc1ccc(OC)c(S(=O)(=O)Nc2noc3cc(-n4cccn4)ccc23)c1 [Example 131]	69.7 µM
CCc1ccc(OC)c(S(=O)(=O)Nc2noc3c(OCC4CC4)cccc23)c1 [Example 133]	45.7 µM
CCc1ccc(OC)c(S(=O)(=O)Nc2noc3cc(OCC4CC4)ccc23)c1 [Example 134]	51.5 µM
